From article PMC13086438 (PLOS Neglected Tropical Diseases, 2026)

Target: T1, recombinant human sphingosine kinase 1 (rhSphK1) (Homo sapiens, UniProt Q9NYA1)
T1 construct: gene SPHK1; full-length (1155 bp CDS), 6×His tag, ~50 kDa, E. coli
Assay: Microscale thermophoresis (SphK2 inhibitor used as control)
Assay type: binding

T1 sequence (Q9NYA1 whole entry): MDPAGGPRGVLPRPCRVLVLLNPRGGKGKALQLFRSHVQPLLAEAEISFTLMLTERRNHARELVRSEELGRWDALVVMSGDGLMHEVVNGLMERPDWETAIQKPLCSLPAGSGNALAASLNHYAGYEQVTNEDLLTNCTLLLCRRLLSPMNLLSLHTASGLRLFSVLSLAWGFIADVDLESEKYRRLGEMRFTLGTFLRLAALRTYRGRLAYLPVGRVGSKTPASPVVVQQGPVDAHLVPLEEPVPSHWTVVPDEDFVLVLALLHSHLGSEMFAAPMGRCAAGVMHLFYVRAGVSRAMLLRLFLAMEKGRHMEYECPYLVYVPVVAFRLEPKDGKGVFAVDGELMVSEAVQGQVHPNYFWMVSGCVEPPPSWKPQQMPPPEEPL

O=C(NCc1ccncc1)C12CC3CC(C1)CC(c1ccc(Cl)cc1)(C3)C2 [ABC294640]
Kd: 70.6 µM
